Earlier results as cited in patent publication US20060193883A1, “Pesticidal treatment materials” (priority 1999, published 2006).

System: house dust mite populations
Details: in vivo

Structure (SMILES)	effectiveness as long-term acaricides against house dust mite populations
CC1(C)[C@H](C(=O)O[C@H](C#N)c2cccc(Oc3ccccc3)c2)[C@@H]1C=C(Br)Br [deltamethrin]	highly effective
CC1(C)C(C=C(Cl)Cl)C1C(=O)OCc1cccc(Oc2ccccc2)c1 (centres unmarked) [permethrin]	highly effective
